Laboratory results from article PMC9154192 (PLoS Biology, 2022).
Read-outs that look alike come from different tables or passages of the source.

How the values were obtained:
[1] = type: in vivo, female rats; design: unit not given here; conditions: for Plasma concentration, individual animals: female rats 1-6, single oral 100 mg/kg, 100 mg/kg; for Plasma concentration, Average: female rats, average of 6 animals
[2] = for % MNPCE (Mean ± S.D.) / % PCE (Mean ± S.D.): 24 hours after dosing
Description: Genotoxicity studies for PP2S were performed according to the ICH (International conference on harmonization) harmonized tripartite guideline, S2(R1). Regarding previous reports, the bacterial reverse mutation test, chromosomal abnormality test, and mouse bone marrow micronucleus test were performed with slight modifications.

CCCCOc1ccc2cc(CN3C(=O)CC[C@H]3C(=O)OC)c3cc(OC)c(OC)cc3c2c1 [PP2S, Methyl (S)-1-((3-butoxy-6,7-dimethoxyphenanthren-9-yl)methyl)-5-oxopyrrolidine-2-carboxylate]
Plasma concentration, individual animals ([1]; 2 h): 237.59
Plasma concentration, individual animals ([1]; 4 h): 316.47
Plasma concentration, individual animals ([1]; 6 h): 323.47
Plasma concentration, individual animals ([1]; 8 h): 253.32
Plasma concentration, individual animals ([1]; 10 h): 217.50
Plasma concentration, individual animals ([1]; 12 h): 210.07
Plasma concentration, individual animals ([1]; 14 h): 174.31
Plasma concentration, individual animals ([1]; 16 h): 211.29
Plasma concentration, individual animals ([1]; 18 h): 122.20
Plasma concentration, individual animals ([1]; 20 h): 116.07
Plasma concentration, individual animals ([1]; 22 h): 87.81
Plasma concentration, individual animals ([1]; 24 h): 63.19
Plasma concentration, Average ([1]; single oral 100 mg/kg, 2 h): 320.00
Plasma concentration, Average ([1]; single oral 100 mg/kg, 4 h): 432.00
Plasma concentration, Average ([1]; single oral 100 mg/kg, 6 h): 276.00
Plasma concentration, Average ([1]; single oral 100 mg/kg, 8 h): 154.00
Plasma concentration, Average ([1]; single oral 100 mg/kg, 10 h): 132.00
Plasma concentration, Average ([1]; single oral 100 mg/kg, 12 h): 110.00
Plasma concentration, Average ([1]; single oral 100 mg/kg, 14 h): 97.00
Plasma concentration, Average ([1]; single oral 100 mg/kg, 16 h): 81.00
Plasma concentration, Average ([1]; single oral 100 mg/kg, 18 h): 78.00
Plasma concentration, Average ([1]; single oral 100 mg/kg, 20 h): 67.00
Plasma concentration, Average ([1]; single oral 100 mg/kg, 22 h): 52.00
Plasma concentration, Average ([1]; single oral 100 mg/kg, 24 h): 35.00
Plasma concentration, Average ([1]; single oral 150 mg/kg, 18 h): 85.00
Plasma concentration, Average ([1]; single oral 150 mg/kg, 20 h): 76.00
Plasma concentration, Average ([1]; single oral 150 mg/kg, 22 h): 63.00
Plasma concentration, Average ([1]; single oral 150 mg/kg, 24 h): 42.00
Mean body weights ± S.D. ([2]; 500 mg/kg P.O., 0 day): 35.9 ± 1.16 g
Mean body weights ± S.D. ([2]; 500 mg/kg P.O., 1 day): 35.5 ± 1.48 g
% MNPCE (Mean ± S.D.) ([2]; 500 mg/kg P.O.): 0.055 ± 0.037%
% PCE (Mean ± S.D.) ([2]; 500 mg/kg P.O.): 30.5 ± 2.16%
Mean body weights ± S.D. ([2]; 1000 mg/kg P.O., 0 day): 35.9 ± 1.07 g
Mean body weights ± S.D. ([2]; 1000 mg/kg P.O., 1 day): 36.1 ± 1.42 g
% MNPCE (Mean ± S.D.) ([2]; 1000 mg/kg P.O.): 0.060 ± 0.034%
% PCE (Mean ± S.D.) ([2]; 1000 mg/kg P.O.): 31.8 ± 2.49%
Mean body weights ± S.D. ([2]; 2000 mg/kg P.O., 0 day): 35.9 ± 1.14 g
Mean body weights ± S.D. ([2]; 2000 mg/kg P.O., 1 day): 34.9 ± 1.63 g
% MNPCE (Mean ± S.D.) ([2]; 2000 mg/kg P.O.): 0.055 ± 0.021%
% PCE (Mean ± S.D.) ([2]; 2000 mg/kg P.O.): 33.6 ± 1.67%
RPD (relative population doubling) ([2]; S9 mix +, Trt-Rec 6-18 hr, 125 µg/mL): 69.4%
RPD (relative population doubling) ([2]; S9 mix +, Trt-Rec 6-18 hr, 250 µg/mL): 67.4%
RPD (relative population doubling) ([2]; S9 mix -, Trt-Rec 6-18 hr, 125 µg/mL): 78.8%
RPD (relative population doubling) ([2]; S9 mix -, Trt-Rec 6-18 hr, 250 µg/mL): 74.3%
RPD (relative population doubling) ([2]; S9 mix -, Trt-Rec 24-0 hr, 125 µg/mL): 46.9%
RPD (relative population doubling) ([2]; S9 mix -, Trt-Rec 24-0 hr, 250 µg/mL): 38.6%
genotoxicity ([2]; bone marrow micronucleus formation test): did not show genotoxicity
